From ChEMBL document CHEMBL3885881, “DrugMatrix”
Values joined by “and” are separate entries in the source; they are usually repeats but may differ in a detail not shown here. Identical values can stand only once.

Species on record: Rattus norvegicus
Assay: DrugMatrix - Regimen: Daily Repeat
Type: toxicity, organism-based, Sprague-Dawley
Set-up: regimen Daily Repeat, gender Male, age 6-8 weeks
Conditions: in vivo, sc, route mini-PUMP - SUBCUTANEOUS, vehicle 100 % SALINE; for ABSOLUTE MONOCYTE / ABSOLUTE SEGMENTED NEUTROPHIL / BASOPHIL / EOSINOPHIL / ERYTHROCYTE COUNT / HEMATOCRIT / HEMOGLOBIN / LEUKOCYTE COUNT / MEAN CORPUSCULAR HEMOGLOBIN / MEAN CORPUSCULAR HEMOGLOBIN CONCENTRATION / MEAN CORPUSCULAR VOLUME / MONOCYTE / NEUTROPHIL / NUCLEATED RED BLOOD CELLS / PLATELET COUNT / ABSOLUTE BASOPHIL / ABSOLUTE EOSINOPHIL / ABSOLUTE LYMPHOCYTE: tissue Blood; for ALBUMIN / ALKALINE PHOSPHATASE / ASPARTATE AMINOTRANSFERASE / BLOOD UREA NITROGEN / CARBON DIOXIDE / CHOLESTEROL / CREATINE PHOSPHOKINASE / CREATININE / GLUCOSE / LACTATE DEHYDROGENASE / PHOSPHORUS / POTASSIUM / SODIUM / TOTAL BILIRUBIN / URIC ACID: tissue Plasma
[1] = 0 mg/kg, 72 h, dose level Control, time 3 day
[2] = 0 mg/kg, 120 h, dose level Control, time 5 day
[3] = 0 mg/kg, […], dose level Control, time 14 day
[4] = 0.5 mg/kg, 72 h, dose level High, time 3 day
[5] = 0.5 mg/kg, 120 h, dose level High, time 5 day
[6] = 0.5 mg/kg, […], dose level High, time 14 day

CC[C@H](C)[C@H](NC(=O)[C@H](Cc1ccc(O)cc1)NC(=O)[C@@H](NC(=O)[C@H](CCCNC(=N)N)NC(=O)[C@@H](N)CC(=O)O)C(C)C)C(=O)N[C@@H](Cc1cnc[nH]1)C(=O)N1CCC[C@H]1C(=O)N[C@@H](Cc1ccccc1)C(=O)O [ANGIOTENSIN II]
ABSOLUTE MONOCYTE [1]: 230 cells/µL and 354 CELLS/uL | ABSOLUTE SEGMENTED NEUTROPHIL [1]: 1658.33 CELLS/uL | BASOPHIL [1]: 0.3% and 0% | EOSINOPHIL [1]: 0.43% and 0.5% | ERYTHROCYTE COUNT [1]: 6.91 x10E6/uL and 6.27 x10E6/uL | HEMATOCRIT [1]: 45.43% and 36.95% | HEMOGLOBIN [1]: 14.37 G/DL and 13.4 G/DL | LEUKOCYTE COUNT [1]: 12.09 x10E3/uL and 16.38 x10E3/uL | MEAN CORPUSCULAR HEMOGLOBIN [1]: 20.8 pg and 21.42 pg | MEAN CORPUSCULAR HEMOGLOBIN CONCENTRATION [1]: 31.67 G/DL and 36.27 G/DL | MEAN CORPUSCULAR VOLUME [1]: 65.83 fL and 59.03 fL | MONOCYTE [1]: 1.83% and 2% | NEUTROPHIL [1]: 15.07% and 10.33% | NUCLEATED RED BLOOD CELLS [1]: 0 /100WBC | PLATELET COUNT [1]: 1299.67 x10E3/uL and 904.67 x10E3/uL | ALBUMIN [1]: 3.83 G/DL and 3.82 G/DL | ALKALINE PHOSPHATASE [1]: 333.67 u/L and 282.33 u/L | ASPARTATE AMINOTRANSFERASE [1]: 68 u/L and 86.83 u/L | BLOOD UREA NITROGEN [1]: 19.33 mg/dL and 20.17 mg/dL | CARBON DIOXIDE [1]: 43 mmol/L and 34.67 mmol/L | CHOLESTEROL [1]: 84.33 mg/dL and 71.5 mg/dL | CREATINE PHOSPHOKINASE [1]: 334.33 u/L | CREATININE [1]: 0.53 mg/dL and 0.2 mg/dL | GLUCOSE [1]: 156.67 mg/dL and 136.83 mg/dL | LACTATE DEHYDROGENASE [1]: 159 u/L | PHOSPHORUS [1]: 9.8 mg/dL and 10.12 mg/dL | POTASSIUM [1]: 5.93 MEQ/L and 5.92 MEQ/L | SODIUM [1]: 146.33 MEQ/L and 147.8 MEQ/L | TOTAL BILIRUBIN [1]: 0.37 mg/dL and 0.2 mg/dL | URIC ACID [1]: 0.73 mg/dL and 1.4 mg/dL | ABSOLUTE SEGMENTED NEUTROPHIL [2]: 3216.67 CELLS/uL | BASOPHIL [2]: 0.2% and 0% | EOSINOPHIL [2]: 0.33% and 0% | ERYTHROCYTE COUNT [2]: 6.81 x10E6/uL and 6.11 x10E6/uL | HEMATOCRIT [2]: 44.33% and 36.22% | HEMOGLOBIN [2]: 13.77 G/DL and 13.18 G/DL | LEUKOCYTE COUNT [2]: 11.2 x10E3/uL and 17.8 x10E3/uL | MEAN CORPUSCULAR HEMOGLOBIN [2]: 20.23 pg and 21.62 pg | MEAN CORPUSCULAR HEMOGLOBIN CONCENTRATION [2]: 31.03 G/DL and 36.42 G/DL | MEAN CORPUSCULAR VOLUME [2]: 65.1 fL and 59.37 fL | MONOCYTE [2]: 2.1% and 1.83% | NEUTROPHIL [2]: 16.43% and 17.67% | NUCLEATED RED BLOOD CELLS [2]: 0 /100WBC | PLATELET COUNT [2]: 1573.33 x10E3/uL and 1311 x10E3/uL | ALBUMIN [2]: 3.87 G/DL and 3.83 G/DL | ALKALINE PHOSPHATASE [2]: 303.67 u/L and 260.33 u/L | ASPARTATE AMINOTRANSFERASE [2]: 72.67 u/L and 76.17 u/L | BLOOD UREA NITROGEN [2]: 17.33 mg/dL and 14.67 mg/dL | CARBON DIOXIDE [2]: 41.33 mmol/L and 31.33 mmol/L | CHOLESTEROL [2]: 74.33 mg/dL and 75 mg/dL | CREATINE PHOSPHOKINASE [2]: 286.67 u/L | CREATININE [2]: 0.47 mg/dL and 0.16 mg/dL | GLUCOSE [2]: 152.33 mg/dL and 152.67 mg/dL | LACTATE DEHYDROGENASE [2]: 147.33 u/L | PHOSPHORUS [2]: 10 mg/dL and 10.97 mg/dL | POTASSIUM [2]: 6.4 MEQ/L and 6 MEQ/L | SODIUM [2]: 146 MEQ/L and 145.52 MEQ/L | TOTAL BILIRUBIN [2]: 0.43 mg/dL and 0.17 mg/dL | URIC ACID [2]: 0.83 mg/dL and 1.27 mg/dL | ABSOLUTE SEGMENTED NEUTROPHIL [3]: 2414 CELLS/uL | NUCLEATED RED BLOOD CELLS [3]: 0.17 /100WBC | CREATINE PHOSPHOKINASE [3]: 262 u/L | ABSOLUTE BASOPHIL [4]: 56.7 cells/µL | ABSOLUTE EOSINOPHIL [4]: 70 cells/µL | ABSOLUTE LYMPHOCYTE [4]: 10900 cells/µL | ABSOLUTE MONOCYTE [4]: 510 cells/µL | BASOPHIL [4]: 0.4% | EOSINOPHIL [4]: 0.5% | ERYTHROCYTE COUNT [4]: 6.47 x10E6/uL | HEMATOCRIT [4]: 44.43% | HEMOGLOBIN [4]: 13.53 G/DL | LEUKOCYTE COUNT [4]: 14.39 x10E3/uL | MEAN CORPUSCULAR HEMOGLOBIN [4]: 20.97 pg | MEAN CORPUSCULAR HEMOGLOBIN CONCENTRATION [4]: 30.53 G/DL | MEAN CORPUSCULAR VOLUME [4]: 68.7 fL | MONOCYTE [4]: 3.57% | NEUTROPHIL [4]: 18.63% | PLATELET COUNT [4]: 1360 x10E3/uL | ALBUMIN [4]: 3.77 G/DL | ALKALINE PHOSPHATASE [4]: 339 u/L | ASPARTATE AMINOTRANSFERASE [4]: 71.67 u/L | BLOOD UREA NITROGEN [4]: 19 mg/dL | CARBON DIOXIDE [4]: 41.33 mmol/L | CHOLESTEROL [4]: 91.67 mg/dL | CREATINE PHOSPHOKINASE [4]: 392.67 u/L | CREATININE [4]: 0.5 mg/dL | GLUCOSE [4]: 169.67 mg/dL | PHOSPHORUS [4]: 10.23 mg/dL | POTASSIUM [4]: 6.3 MEQ/L | SODIUM [4]: 150.67 MEQ/L | TOTAL BILIRUBIN [4]: 0.27 mg/dL | URIC ACID [4]: 0.93 mg/dL | ABSOLUTE BASOPHIL [5]: 43.3 cells/µL | ABSOLUTE EOSINOPHIL [5]: 36.7 cells/µL | ABSOLUTE LYMPHOCYTE [5]: 9260 cells/µL | ABSOLUTE MONOCYTE [5]: 340 cells/µL | BASOPHIL [5]: 0.33% | EOSINOPHIL [5]: 0.3% | ERYTHROCYTE COUNT [5]: 6.6 x10E6/uL | HEMATOCRIT [5]: 45.03% | HEMOGLOBIN [5]: 13.57 G/DL | LEUKOCYTE COUNT [5]: 12.59 x10E3/uL | MEAN CORPUSCULAR HEMOGLOBIN [5]: 20.53 pg | MEAN CORPUSCULAR HEMOGLOBIN CONCENTRATION [5]: 30.1 G/DL | MEAN CORPUSCULAR VOLUME [5]: 68.23 fL | MONOCYTE [5]: 2.7% | NEUTROPHIL [5]: 22.57% | PLATELET COUNT [5]: 1662.33 x10E3/uL | ALBUMIN [5]: 3.8 G/DL | ALKALINE PHOSPHATASE [5]: 329 u/L | ASPARTATE AMINOTRANSFERASE [5]: 76.33 u/L | BLOOD UREA NITROGEN [5]: 17.67 mg/dL | CARBON DIOXIDE [5]: 41 mmol/L | CHOLESTEROL [5]: 86.33 mg/dL | CREATINE PHOSPHOKINASE [5]: 239.67 u/L | CREATININE [5]: 0.5 mg/dL | GLUCOSE [5]: 171.33 mg/dL | PHOSPHORUS [5]: 9.77 mg/dL | POTASSIUM [5]: 5.87 MEQ/L | SODIUM [5]: 152 MEQ/L | TOTAL BILIRUBIN [5]: 0.3 mg/dL | URIC ACID [5]: 1.33 mg/dL | ABSOLUTE BASOPHIL [6]: 40 cells/µL | ABSOLUTE EOSINOPHIL [6]: 62 cells/µL
